# Measurements taken from patent publication US12285475B2, “Bacterium capable of inducing TH1 cells” (priority 2016, dated 2025).
# Like-named read-outs stand apart in the source and are kept apart here.
# How the values were obtained:
# [1] = system: Ka-11E12; assay: Ka-11E12 antibiotic susceptibility (MIC / growth in presence of antibiotics); type: cell-based, Klebsiella aeromobilis; details: against Ka-11E12, Table 14
# Description: FIG. 36 is a graph for analyzing the Ka-11E12 growths in the presence of antibiotics. Ka-11E12 was cultured in a 96-well plate in the presence of different concentrations of the antibiotics at 37° C. for 24 hours. The bacterium growths were determined based on the absorbance measurement at a wavelength of 630 nm. Each data represents the mean±standard deviation based on the results of at least three independent experiments.
# [2] = system: Kp-2H7; assay: Kp-2H7 antibiotic susceptibility (MIC / growth in presence of antibiotics); type: cell-based, Klebsiella pneumoniae; details: for resistance of Kp-2H7 to antibiotic: FIG. 11 and Table 12, culture 37° C. 24 hours, absorbance 630 nm
# Description: The bacterium growths were determined based on the absorbance measurement at a wavelength of 630 nm.
# [3] = Klebsiella, 24 h, read-out: MIC
# [4] = Klebsiella pneumoniae, 24 h, read-out: MIC
Molecule,"MIC [1, 3] [µg/mL]","MIC [2, 4] [µg/mL]",other results
NCC[C@H](O)C(=O)N[C@@H]1C[C@H](N)[C@@H](O[C@H]2O[C@H](CN)[C@@H](O)[C@H](O)[C@H]2O)[C@H](O)[C@H]1O[C@H]1O[C@H](CO)[C@@H](O)[C@H](N)[C@H]1O [Amikacin],≤ 8,≤ 8,–
CC1(C)S[C@@H]2[C@H](NC(=O)[C@H](N)c3ccccc3)C(=O)N2[C@H]1C(=O)O [Ampicillin],> 16,> 16,–
C[C@H]1[C@H](NC(=O)/C(=N\OC(C)(C)C(=O)O)c2csc(N)n2)C(=O)N1S(=O)(=O)O [Aztreonam],≤ 1,≤ 1,–
N[C@@H](C(=O)N[C@@H]1C(=O)N2C(C(=O)O)=C(Cl)CS[C@H]12)c1ccccc1 [Cefaclor],8,≤ 4,–
Cc1nnc(SCC2=C(C(=O)O)N3C(=O)[C@@H](NC(=O)Cn4cnnn4)[C@H]3SC2)s1 [Cefazolin],> 4,1,–
CO[C@@]1(NC(=O)CSCC#N)C(=O)N2C(C(=O)O)=C(CSc3nnnn3C)CS[C@@H]21 [Cefmetazole],16,≤ 8,–
CO/N=C(\C(=O)N[C@@H]1C(=O)N2C(C(=O)O)=C(COC(C)=O)CS[C@H]12)c1csc(N)n1 [Cefotaxime],≤ 0.5,≤ 0.5,–
CN(C)CCn1nnnc1SCC1=C(C(=O)O)N2C(=O)[C@@H](NC(=O)Cc3csc(N)n3)[C@H]2SC1 [Cefotiam],≤ 0.5,≤ 0.5,–
CO/N=C(\C(=O)N[C@@H]1C(=O)N2C(C(=O)[O-])=C(C[n+]3cccc4c3CCC4)CS[C@H]12)c1csc(N)n1 [Cefpirome],≤ 4,≤ 4,–
COCC1=C(C(=O)OC(C)OC(=O)OC(C)C)N2C(=O)[C@@H](NC(=O)/C(=N\OC)c3csc(N)n3)[C@H]2SC1 (some centres unmarked) [Cefpodoxime-Proxetil],≤ 1,≤ 1,–
CC(C)(O/N=C(\C(=O)N[C@@H]1C(=O)N2C(C(=O)[O-])=C(C[n+]3ccccc3)CS[C@H]12)c1csc(N)n1)C(=O)O [Ceftazidime],≤ 1,≤ 1,–
CO[C@@]1(NC(=O)CSC(F)F)C(=O)N2C(C(=O)O)=C(CSc3nnnn3CCO)CO[C@@H]21 [Flomoxef],≤ 8,≤ 8,–
C[C@@H]1O[C@@H]1P(=O)(O)O [Fosfomycin],16,16,–
C[C@H]1COc2c(N3CCN(C)CC3)c(F)cc3c(=O)c(C(=O)O)cn1c23 [Levofloxacin],≤ 1,≤ 1,–
C[C@@H](O)[C@H]1C(=O)N2C(C(=O)O)=C(S[C@@H]3CN[C@H](C(=O)N(C)C)C3)[C@H](C)[C@H]12 [Meropenem],≤ 0.25,≤ 0.25,–
CN(C)c1ccc(O)c2c1C[C@H]1C[C@H]3[C@H](N(C)C)C(O)=C(C(N)=O)C(=O)[C@@]3(O)C(O)=C1C2=O [Minocycline],≤ 2,≤ 2,–
CCN1CCN(C(=O)N[C@@H](C(=O)N[C@@H]2C(=O)N3[C@@H]2SC(C)(C)[C@@H]3C(=O)O)c2ccccc2)C(=O)C1=O [Piperacillin],≤ 8,≤ 8,–
Cc1ncc([N+](=O)[O-])n1CCO [metronidazole],–,–,resistance of Kp-2H7 to antibiotic [2]: resistances
CN[C@@H]1[C@H](O)[C@H](NC)[C@H]2O[C@@]3(O)C(=O)C[C@@H](C)O[C@H]3O[C@@H]2[C@H]1O [spectinomycin],–,–,resistance of Kp-2H7 to antibiotic [2]: resistances
CC[C@H]1OC(=O)C[C@@H](O)[C@H](C)[C@@H](O[C@@H]2O[C@H](C)[C@@H](O[C@H]3C[C@@](C)(O)[C@@H](O)[C@H](C)O3)[C@H](N(C)C)[C@H]2O)[C@@H](CC=O)C[C@@H](C)C(=O)/C=C/C(C)=C/[C@@H]1CO[C@@H]1O[C@H](C)[C@@H](O)[C@@H](OC)[C@H]1OC [tylosin],–,–,resistance of Kp-2H7 to antibiotic [2]: resistances
Amoxicillin/Clavulanate,–,–,"MIC [1]: >16 µg/mL; MIC ([2]; against Kp-2H7, Table 12): ≤4 µg/mL"
Gentamicin,–,–,"MIC [1]: ≤2 µg/mL; MIC ([2]; against Kp-2H7, Table 12): ≤2 µg/mL"
Imipenem/Cilastatin,–,–,MIC [1]: ≤0.25 µg/mL; MIC [2]: ≤0.25 µg/mL
Sulbactam/Cefoperazone,–,–,"MIC [1]: ≤4 µg/mL; MIC ([2]; against Kp-2H7, Table 12): ≤4 µg/mL"
Sulfamethoxazole-Trimethoprim,–,–,"MIC [1]: ≤ 20 µg/mL; MIC ([2]; against Kp-2H7, Table 12): ≤20 µg/mL"
